Here are results for 2 compounds from patent publication US12351628B2, “Modified membrane spanning proteins and methods for the preparation and use thereof” (priority 2014, dated 2025).

Values after ≈ are worked out from the molar mass of the structure shown. Like-named read-outs stand apart in the source and are kept apart here.

For this assay, the system named is E. coli strains (e.g. BL21 or DH10beta). Kind of assay: Growth of E. coli on LB medium with varying antibiotic concentrations (MIC), liquid and agar plates. It counts as cell-based. Conditions: for Antibiotic concentration to which resistance is conferred: E. coli transformed with isolated mutated GPR55 clones; for MIC: Escherichia coli. How it is done:
The construct library containing modified genes is then used to transform E. coli strains (e.g. BL21 or DH10beta). Growth is tested on LB medium with varying concentrations of kanamycin (MIC for untransformed cells is approximately 10 mg/L), both in liquid and agar plates.

[1] abbreviates: E. coli containing a plasmid encoding wild type human GPR55.
Where [2] appears, read: read-out: Apparent MIC, E. coli expressing certain constructs containing wild type rat NTSR1 (aa 43-424).

`CC1(C)S[C@@H]2[C@H](NC(=O)C(C(=O)O)c3ccccc3)C(=O)N2[C@H]1C(=O)O` (stereo partly shown) [carbenicillin]: the “Antibiotic concentration to which resistance is conferred” value is above 80 mg/L. Also, under setting [1], the MIC (in general, the smallest concentration in the dilution series that meets the test's criterion for growth inhibition) is around 40 µg/mL (≈ 106 µM). Under setting [2], the MIC is above 75 µg/mL.

On to `NC[C@H]1O[C@H](O[C@H]2[C@H](O)[C@@H](O[C@H]3O[C@H](CO)[C@@H](O)[C@H](N)[C@H]3O)[C@H](N)C[C@@H]2N)[C@H](O)[C@@H](O)[C@@H]1O` [kanamycin], for which the “Antibiotic concentration to which resistance is conferred” value was above 50 mg/L. Also, under setting [1], the MIC was around 25 µg/mL (≈ 51.6 µM). In addition, the minimum inhibitory concentration (MIC) under setting [2] is above 50 µg/mL. Where the note is “untransformed E. coli cells, LB medium”, the MIC is around 10 µg/mL (≈ 20.6 µM).
